Measured values as given in patent US4425435A, “Cholesterol oxidase and process for producing same” (Takara Shuzo Co., Ltd., priority 1980, dated 1984).

These compounds were tested on cholesterol oxidase (assay: Substrate specificity: hydrogen peroxide decomposed with peroxidase, chromogen colour). Conditions: hydrogen peroxide liberated from dehydrogenation of the 3β-position.
Type: biochemical, Basidiomycetes
`C[C@@H](O)[C@H]1CC[C@H]2[C@@H]3CC[C@H]4C[C@@H](O)CC[C@]4(C)[C@H]3CC[C@]12C` [5α-pregnan-3β,20β-diol] was tested, and the “enzyme acts on the sterol (substrate specificity)” value (“enzyme acts on the sterol” for short) was “act on”.
In the case of `CC(C)[C@H](C)CC[C@@H](C)[C@H]1CC[C@H]2[C@@H]3CC=C4C[C@@H](O)CC[C@]4(C)[C@H]3CC[C@]12C` [campesterol], the “enzyme acts on the sterol” value is reported as “act on”.
`CC(C)CCC[C@@H](C)[C@H]1CC[C@H]2[C@@H]3CC=C4C[C@@H](O)CC[C@]4(C)[C@H]3CC[C@]12C` [cholesterol] was tested, and the “enzyme acts on the sterol” value was “act on”.
In the case of `C[C@]12CC[C@H](O)CC1=CC[C@@H]1[C@@H]2CC[C@]2(C)C(=O)CC[C@@H]12` [dehydroepiandrosterone], the “enzyme acts on the sterol” value is reported as “act on”.
In the case of `CC(C)[C@@H](C)/C=C/[C@@H](C)[C@H]1CC[C@H]2C3=CC=C4C[C@@H](O)CC[C@]4(C)[C@H]3CC[C@]12C` [ergosterol], the “enzyme acts on the sterol” value is reported as “act on”.
With `CC(=O)[C@H]1CC[C@H]2[C@@H]3CC=C4C[C@@H](O)CC[C@]4(C)[C@H]3CC[C@]12C` [pregnenolone] the “enzyme acts on the sterol” value was “act on”.
In the case of `CC[C@H](/C=C/[C@@H](C)[C@H]1CC[C@H]2[C@@H]3CC=C4C[C@@H](O)CC[C@]4(C)[C@H]3CC[C@]12C)C(C)C` [stigmasterol], the “enzyme acts on the sterol” value is reported as “act on”.
`CC(C)CCC[C@@H](C)[C@H]1CC[C@H]2[C@@H]3CC[C@H]4C[C@@H](O)CC[C@]4(C)[C@H]3CC[C@]12C` [β-cholestanol] was tested, and the “enzyme acts on the sterol” value was “act on”.
With `CC[C@H](CC[C@@H](C)[C@H]1CC[C@H]2[C@@H]3CC=C4C[C@@H](O)CC[C@]4(C)[C@H]3CC[C@]12C)C(C)C` [β-cytosterol] the “enzyme acts on the sterol” value was “act on”.

Each compound was assayed on cholesterol oxidase (assay: Effect of inhibitors etc. on activity of the present enzymes). Conditions: not given.
Type: biochemical, Basidiomycetes
Procedure: The enzymatic activity is determined by measurement of the hydrogen peroxide produced by the reaction of the enzyme solution on the substrate cholesterol. The method is based on the sequence of reactions as follows: Thus cholesterol is oxidized by cholesterol oxidase to cholest-5-en-3-one with the evolution of hydrogen peroxide, which couples with 4-aminoantipyrine and phenol in the presence of peroxidase to yield a quinoneimine dye with maximum absorption at 500 nm. To conduct this reaction there is used a reaction mixture, in a final volume of 3.0 ml, composed of 0.1 ml of the enzyme solution, 2 μmoles of cholesterol in 0.1 ml of ethanol, 250 μmoles of phosphate buffer, pH 7.0, 2.46 μmoles of 4-aminoantipyrine, 42 μmoles of phenol, and 24 units of peroxidase obtained from horseradish. The reaction is carried out at 37° C. for 10 minutes with shaking. One unit of cholesterol oxidase activity was defined as the amount of the enzyme which catalyzes the oxidation of 1 μmole of cholesterol per minute at 37° C.
`[Ba+2]` [Ba^2+] was tested, and the “inhibition of the enzyme activity” value was “do not inhibit”.
In the case of `[Ca+2]` [Ca^2+], the “inhibition of the enzyme activity” value is reported as “do not inhibit”.
`[Co+2]` [Co^2+] was tested, and the “inhibition of the enzyme activity” value was “do not inhibit”.
With `[Cu+2]` [Cu^2+] the “inhibition of the enzyme activity” value was “markedly inhibited”.
For `O=C(O)CN(CCN(CC(=O)O)CC(=O)O)CC(=O)O` [EDTA], the “inhibition of the enzyme activity” value was “not inhibitory”.
`[Fe+2]` [Fe^2+] was tested, and the “inhibition of the enzyme activity” value was “do not inhibit”.
In the case of `[Hg+2]` [Hg^2+], the “inhibition of the enzyme activity” value is reported as “markedly inhibited”.
For `[Mg+2]` [Mg^2+], the “inhibition of the enzyme activity” value was “do not inhibit”.
For `[Mn+2]` [Mn^2+], the “inhibition of the enzyme activity” value was “do not inhibit”.
For `[Ni+2]` [Ni^2+], the “inhibition of the enzyme activity” value was “do not inhibit”.
With `N[C@@H](CCC(=O)N[C@@H](CS)C(=O)NCC(=O)O)C(=O)O` [glutathione] the “prevention of inhibition caused by Cu^2+ and Hg^2+” value was “almost completely prevented”.
`c1cnc2c(c1)ccc1cccnc12` [o-phenanthroline] was tested, and the “inhibition of the enzyme activity” value was “not inhibitory”.
For `c1ccc(-c2ccccn2)nc1` [α,α'-dipyridyl], the “inhibition of the enzyme activity” value was “not inhibitory”.
For `Oc1cccc2cccnc12` [β-hydroxyquinoline], the “inhibition of the enzyme activity” value was “not inhibitory”.

Same assay, conditions: 0.01% of Triton X-100
For Triton X-100, the “inhibition of the enzyme activity by detergent” value was “inhibit almost completely”.
